The text below walks through data of PubChem BioAssay (NCI).

Each structure is given as a SMILES string. Values joined by “and” are separate entries in the source; they are usually repeats but may differ in a detail not shown here. Equal entries are not always repeated.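 How tested: cells in 96-well plates exposed to compound for 48 hours at five concentrations. The concentration for 50% growth inhibition is given as GI50. TGI: total growth inhibition.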 A value given as a limit tells only on which side of the number the result lay.

Some test systems named below: 786-0 renal; DU-145 prostate; EKVX NSCLC; HT29 colon; KM12 colon; MALME-3M melanoma; MCF7 breast; MDA-MB-435; NCI-H522 lung; OVCAR-8 ovarian.
What all share (assay): growth of human tumour cells (NCI), 48 h

For the molecule `C=CCCCc1ccc(C(O)CCCCCCCCCCCC)o1` (configuration not stated), the GI50 in the experiment with 786-0 renal was 15.2 µM; with DU-145 prostate, 19 µM; with EKVX NSCLC, 20.1 µM; in the experiment on HT29 colon, 17.1 µM; in the experiment on KM12 colon, 21.3 µM; in the experiment on MALME-3M melanoma, 26 µM. The GI50 with MCF7 breast was 17.6 µM; in the experiment with MDA-MB-435, 26.2 µM; in the experiment on NCI-H522 lung, 15.3 µM; in the experiment on OVCAR-8 ovarian, 20.6 µM. Moreover, the TGI amounted to 28.5 µM in the experiment with 786-0 renal; 35.4 µM in the experiment on DU-145 prostate; 37.5 µM in the experiment with EKVX NSCLC; 35.4 µM in the experiment with HT29 colon; 46 µM in the experiment on KM12 colon; 72.1 µM with MALME-3M melanoma. For the same molecule, the TGI is 48.3 µM with MCF7 breast, 58.7 µM in the experiment on MDA-MB-435, 29.7 µM in the experiment on NCI-H522 lung and 44.9 µM in the experiment with OVCAR-8 ovarian.
As for `CC(=O)Oc1ccc(C(c2ccc(OC(C)=O)cc2)c2ccccn2)cc1`, the TGI with 786-0 renal was > 100 µM; with DU-145 prostate it was > 100 µM; in the experiment on EKVX NSCLC it was > 100 µM and 57.1 µM; in the experiment on HT29 colon, > 100 µM; with KM12 colon, > 100 µM; with MALME-3M melanoma, > 100 µM. For the same molecule, the TGI in the experiment on MCF7 breast, with MDA-MB-435, in the experiment with NCI-H522 lung and in the experiment with OVCAR-8 ovarian was > 100 µM throughout. For the same molecule, the GI50 in the experiment with DU-145 prostate is 98.2 µM; in the experiment on KM12 colon it was 39.2 µM; with MALME-3M melanoma it was 29.4 µM; with MCF7 breast, 0.516 µM; with MDA-MB-435, 53.2 µM; with NCI-H522 lung, 59 µM. Further, the GI50 with OVCAR-8 ovarian is 21.8 µM.
